The text below walks through data of US7345026B2, “Hybrid or chimeric polynucleotides, proteins, and compositions comprising hepatitis B virus sequences” (Institut Pasteur, priority 1999, dated 2008).

Where “and” joins values, the source holds several entries; their conditions need not be identical. Equal entries are not always repeated. Entries after “also recorded” stand apart in the source; their conditions may differ. Where two headings read alike, the source gives them in different places.

The subject of assay [1] is HHD-transfected RMA-S cells loaded with relevant peptides. Also on record: species or system HHD mice. Conditions: in vivo.
In assay [2] the test system is peptide-loaded HHD-transfected RMA-S cells. The arrangement: species or system HHD mice. The following applies: mouse, in vivo.
Assay [3] relates to HHD-transfected RMA-S target cells loaded with relevant peptides. Also on record: species or system HHD mice. Conditions: mouse, in vivo.
Assay [4] deals with HHD-transfected RMA-S cells loaded with relevant peptides. The arrangement: species or system A2A2Kb mice. The following applies: in vivo, sc.
Assay [5] relates to HHD-transfected RMAS cells loaded with relevant peptides. Also on record: species or system HHD mice. Conditions: mouse, in vivo, iv.
The test system is the same in assay [6]. Also on record: species or system HHD mice. The following applies: mouse, in vivo.
Assay [7] shares this test system. Also on record: species or system HHD mice. Conditions: mouse, in vivo. This is another data set of the same source.
In a further assay the target is HLA-A2.1 molecules (Homo sapiens, UniProt P04439, D140Y/D185E/D98H/E176V/E277Q/G131W/G231S/I119V/I121R/I166T/I218V/L300P/L318F/N151K/N90K/P208A/P217A/Q86G/Q94H/R138H/R169H/T345S).

Take “IISAVVGIL (listed as Homo sapiens) [Her2/neu.654]”: the “lysis in % (maximal lysis observed for each responder mouse)” value in assay [1] (sc) is given as “(42) %”. In assay [1] (mouse), the “CTL inducer hierarchy (in words)” value is listed as “weak”.
Take “ILTVILGVL (listed as Homo sapiens) [Melan-A/MART-1.32]”: in assay [1] (mouse), the “CTL inducer hierarchy (in words)” value is reported as “inefficient”. In addition, the “CTL response against the epitope after polyepitope immunization (in words)” value (“CTL response against the epitope” for short) in assay [2] was “No specific lysis; also recorded: did not elicit CTL responses”.
Consider ITDQVPFSV [gp100.209], for which the lysis in % entry in assay [3] was “(31, 36, 56) %”. In addition, the “lysis in % (maximal lysis observed for each responder mouse)” value in assay [1] (sc) is on record as “(23) %”. Also, in assay [1] (mouse), the “CTL inducer hierarchy (in words)” value is “weak”.
For the sequence KTWGQYWQV [gp100.154], in assay [3], the “CTL response when co-injected with helper peptide (in words)” value (from here on “CTL response when co-injected”) was “stronger responses in a larger proportion of mice” and the lysis in % result was “(43, 59, 60, 64, 77. 77, 80, 82, 85) %”. The “CTL inducer hierarchy (in words)” value in assay [1] (mouse) is on record as “strong”. In addition, in assay [2], the “CTL response against the epitope” value is recorded as “Strong responses”.
Take LLDGTATLRL [gp100.457]: in assay [3], the “CTL response when co-injected” value is listed as “good CTL responses in a large proportion of mice; also recorded: strong CTL-inducers when associated with a helper peptide” and the lysis in % result is “(14, 35, 43, 77, 79) %”. In assay [1] (mouse), the “CTL inducer hierarchy (in words)” value is “inefficient”. Further, the “CTL response against the epitope” value in assay [2] is “Significant responses”.
Consider “LLGRNSFEV (listed as Homo sapiens) [p53.264]”, for which the lysis in % result in assay [3] is on record as “(37, 64) %”. Also, the “CTL inducer hierarchy (in words)” value in assay [1] (mouse) was “inefficient; also recorded: poor CTL-induction capacity”.
Turning to “MLLAVLYCL (listed as Homo sapiens) [Tyrosinase.1]”, in assay [3], the “CTL response when co-injected” value was “good CTL responses in a large proportion of mice” and the lysis in % entry is listed as “(27, 33, 40, 42, 51) %”. For the same sequence, in assay [1] (mouse), the “CTL inducer hierarchy (in words)” value was “inefficient”. The “CTL response against the epitope” value in assay [2] was “No specific lysis; also recorded: did not elicit CTL responses”.
Regarding “RMPEAAPPV (listed as Homo sapiens) [p53.65]”, in assay [3], the “CTL response when co-injected” value is listed as “stronger responses in a larger proportion of mice” and the lysis in % entry was “(29, 31, 40, 41, 55) %”. In addition, in assay [1] (mouse), the “CTL inducer hierarchy (in words)” value is recorded as “intermediate”.
As for “STPPPGTRV (listed as Homo sapiens) [p53.149]”, the lysis in % entry in assay [3] was “(20, 51, 71) %”. For the same sequence, in assay [1] (mouse), the “CTL inducer hierarchy (in words)” value is on record as “inefficient”.
With “TLGIVCPI (listed as Homo sapiens) [HPV E7.86]”, the lysis in % result in assay [3] is recorded as “(34, 48) %”. Moreover, the “CTL inducer hierarchy (in words)” value in assay [1] (mouse) is “inefficient”. The “lysis in % (maximal lysis observed for each responder mouse)” value in assay [4] is reported as “(10, 13) %”.
Turning to “VLPDVFIRC (listed as Homo sapiens) [NA17-A.nt38]”, in assay [3], the “CTL response when co-injected” value is “stronger responses in a larger proportion of mice” and the lysis in % result is “(36, 39, 61,64, 71) %”. In addition, the “CTL inducer hierarchy (in words)” value in assay [1] (mouse) was “intermediate”. In addition, the “CTL response against the epitope” value in assay [2] is “Strong responses”. Besides, in assay [5], the “lysis in % (highest specific lysis)” value is 0 (6) % and 3 (5) % and 5 (24) % and 3 (9) % and 6 (7) % and 0 (2) %; the “lysis in % following a second in vitro restimulation (numbers in parentheses)” value (“lysis in % following a second” below) is 0 (6) % and 3 (5) % and 5 (24) % and 3 (9) % and 6 (7) % and 0 (2) %.
Turning to “VLYRYGSFSV (listed as Homo sapiens) [gp100.476]”, the lysis in % entry in assay [3] was “(20, 22, 59, 63, 75, 79) %”. For the same sequence, the “lysis in % (maximal lysis observed for each responder mouse)” value was “(54, 70) %” in assay [1] (sc) and “(29) %” in assay [4]. Moreover, in assay [1] (mouse), the “CTL inducer hierarchy (in words)” value is “weak”. In addition, the “CTL response against the epitope” value in assay [2] was “did not elicit CTL responses”.
Regarding YLEPGPVTA [gp100.280], in assay [6], the “CTL responses (in words)” value was “Some responses of weak to strong magnitude”. In assay [3], the lysis in % result is reported as “(12, 16) %”. For the same sequence, in assay [1] (mouse), the “CTL inducer hierarchy (in words)” value was “weak”. In assay [7], the “CTL responses (in words)” value is recorded as “Some responses of weak to strong magnitude”. Moreover, the “CTL response against the epitope” value in assay [2] was “No specific lysis; also recorded: did not elicit CTL responses”. In addition, in assay [5], the “lysis in % (highest specific lysis)” value is 0 (1) % and 0 (0) %; the “lysis in % following a second” value was 0 (1) % and 0 (0) %.
Consider “YLSGANLNL (listed as Homo sapiens) [CEA.571]”, for which, in assay [3], the “CTL response when co-injected” value is on record as “less immunogenic” and the lysis in % result is given as “(20, 32, 46) %”. In addition, in assay [1] (mouse), the “CTL inducer hierarchy (in words)” value is reported as “strong”. Besides, in assay [5], the “lysis in % (highest specific lysis)” value was 4 (1) % and 1 (5) % and 1 (2) % and 0 (0) % and 2 (0) % and 4 (22) %; the “lysis in % following a second” value is 4 (1) % and 1 (5) % and 1 (2) % and 0 (0) % and 2 (0) % and 4 (22) %.
As to YMDGTMSQV [Tyrosinase.368-D], in assay [3], the lysis in % result is on record as “(13, 15) %”. In assay [1] (sc), the “lysis in % (maximal lysis observed for each responder mouse)” value is given as “(10) %”. Moreover, the “CTL inducer hierarchy (in words)” value in assay [1] (mouse) is listed as “weak”. Further, the “CTL responses (in words)” value in assay [7] is recorded as “Some responses of weak to strong magnitude”. The “CTL response against the epitope” value in assay [2] is “elicited CTL responses depending on mice”.
Consider “YMNGTMSOV (YMNGTMSV; listed as Homo sapiens) [Tyrosinase.368-N]”, for which the “RA (relative affinity)” value with HLA-A2.1 molecules is given as 2.2. In addition, the lysis in % result in assay [3] is “(21, 36, 70, 72, 78) %”. In addition, the “R/T (responder versus tested mice)” value in assay [3] (sc) is 5/12; in assay [1] (mouse, sc), 4/15; in assay [4] (mouse) it was 0/6. For the same sequence, the “CTL inducer hierarchy (in words)” value in assay [1] (mouse) is “intermediate”.
